Numbers after ± are expanded uncertainties.
Test: relative permittivity at zero frequency (dimensionless)
Conditions: 298.15 K; 101.33 kPa; Liquid; Coaxial cylinder capacitor

Structure (SMILES) | relative permittivity at zero frequency
CCCCn1cc[n+](C)c1.N#C[S-] [1-butyl-3-methylimidazolium thiocyanate] | 13.7 ± 1.6
CCCCn1cc[n+](C)c1C.F[B-](F)(F)F [1-butyl-2,3-dimethylimidazolium tetrafluoroborate] | 13.3 ± 1.2
CC(O)C(=O)O.OCCN(CCO)CCO [triethanolamine lactate] | 59.7 ± 6
CCn1cc[n+](C)c1C.O=S(=O)([N-]S(=O)(=O)C(F)(F)F)C(F)(F)F | 12.8 ± 0.8
CCOP(=O)([O-])OCC.CCn1cc[n+](C)c1 [1-ethyl-3-methylimidazolium diethyl phosphate] | 16.9 ± 1.6
CCCC[N+]1(C)CCCC1.N#CN=C=[N-] [1-butyl-1-methylpyrrolidinium dicyanamide] | 18 ± 1.6
CCn1cc[n+](C)c1.O=S(=O)([O-])O [1-ethyl-3-methylimidazolium hydrogen sulfate] | 18.4 ± 2
CCCCn1cc[n+](C)c1.F[B-](F)(F)F [1-butyl-3-methylimidazolium tetrafluoroborate] | 13.9 ± 0.8
CCCCn1cc[n+](C)c1C.O=S(=O)([N-]S(=O)(=O)C(F)(F)F)C(F)(F)F | 14 ± 1.6
CC(O)C(=O)[O-].[NH3+]CCO (stereo unspecified) [2-hydroxyethylammonium lactate] | 85.6 ± 8
CC(=O)[O-].[NH3+]CCO [2-hydroxyethylammonium acetate] | 58.3 ± 5
CCCCn1cc[n+](C)c1.O=S(=O)([O-])C(F)(F)F [1-butyl-3-methylimidazolium trifluoromethanesulfonate] | 12.9 ± 1
CC(=O)O.OCCN(CCO)CCO [triethanolammonium acetate] | 31 ± 3
O=[N+]([O-])[O-].[NH3+]CCO [ethanolammonium nitrate] | 60.9 ± 4
CCCCn1c(C)c(C)[n+](C)c1C.O=S(=O)([N-]S(=O)(=O)C(F)(F)F)C(F)(F)F | 15 ± 1.6
CCCC[n+]1c(C)c(C)n(C)c1C.F[B-](F)(F)F | 12 ± 1.2
Cl.Cn1ccnc1 [1-methylimidazolium chloride] | 13.8 ± 2
CCCCn1cc[n+](C)c1.F[P-](F)(F)(F)(F)F [1-butyl-3-methylimidazolium hexafluorophosphate] | 14 ± 1.4
CCCCC[N+](CC)(CC)CC.O=S(=O)([N-]S(=O)(=O)C(F)(F)F)C(F)(F)F [triethylpentylammonium bis(trifluoromethylsulfonyl)imide] | 12.5 ± 1.4
CCOS(=O)(=O)[O-].CCn1cc[n+](C)c1 [1-ethyl-3-methylimidazolium ethyl sulfate] | 35 ± 3
CCCCn1cc[n+](C)c1C.F[P-](F)(F)(F)(F)F [1-butyl-2,3-dimethylimidazolium hexafluorophosphate] | 9.4 ± 2
C[n+]1ccn(CCO)c1.F[B-](F)(F)F [1-(2-hydroxyethyl)-3-methylimidazolium tetrafluoroborate] | 23.3 ± 2
Br.Cn1ccnc1 [1-methylimidazolium bromide] | 16.6 ± 2.4
CCCCS(=O)(=O)[O-].CCn1cc[n+](C)c1 [1-ethyl-3-methylimidazolium butylsulfonate] | 30 ± 3
COP(=O)([O-])OC.Cn1cc[n+](C)c1 [1,3-dimethylimidazolium dimethylphosphate] | 29.6 ± 3
CCn1cc[n+](C)c1.O=S(=O)([O-])C(F)(F)F [1-ethyl-3-methylimidazolium trifluoromethanesulfonate] | 16.5 ± 1
